Assay results: patent publication US20090093538A1, “Method for treating cancer” (priority 2007, published 2009)

Experiments:
[1] = tested on: Hs294T (or MDA-MB-435) cells; assay: Affymetrix transcriptional profiling; format: cell-based, human; conditions: 100 nM, 6 hours
Procedure: RNA was isolated from the cells 6 hours after treatment using the RNeasy kit according to the manufacturers instructions (Qiagen Cat. # 71404) and RNA quality was confirmed by spectrophotometric examination. cDNA was synthesized using the One-Cycle cDNA Synthesis Kit (Affymetrix Cat. # 900431) according to the manufacturers instructions. cDNA was labeled using the GeneChip IVT Labeling Kit (Affymetrix Cat. #900449) and analyzed in duplicate on the Affymetrix Human Genome U133Plus 2.0 gene chip array according to standard Affymetrix protocols. Data sheets from the Affymetrix Gene Chip Scanner 3000 were imported into Microsoft Excel and filtered by the following criteria: greater than or equal to 1.5 fold increase, greater than or equal to 0.4SE between replicates; and 50 (low stringency) or 500 (high stringency) for the lowest signal.
NAC is the rate-limiting amino acid for the production of the antioxidant glutathione. Addition of NAC to cells increases the levels of endogenous glutathione which in turn blocks oxidative stress and ROS generation. […] RNA was isolated from the cells 6 hours after treatment and Affymetrix analysis was performed as above.

Hsp70 [2] = assay: Hsp70 induction in tumor and non-tumor cells (Western blot); format: cell-based, human; conditions: 0.5 μM, 15 hours; MDA-MB-435 vs HMEC and HRE cells
Procedure: MDA-MB-435, human mammary epithelial (HMEC) […] (see Ross et al., “Systematic variation in gene expression patterns in human cancer cell lines,” Nat. Genet. (2000). 24(3):227-3.), and human renal epithelial (HRE) cells were seeded in 100 mm tissue culture plates at 1.5×10^6 cells/plate and incubated at 37° C. with 5% CO2 for several hours. […] After treatment the cells were lysized and used for Western blot analysis.
Samples were run on a SDS-PAGE gel and proteins were transferred onto a nitrocellulose membrane. Nitrocellulose was blocked with 5% skim milk in TBS with 0.5% Tween at room temperature for 1 hour and then probed with anti-Hsp70 (mouse IgG, sc-24, Santa Cruz) antibody. The nitrocellulose was then probed with secondary antibodies, HRP-conjugated goat anti-rabbit IgG and HRP-conjugated horse anti-mouse IgG (#7074, #7076, Cell Signaling). LumiGLO reagent, 20× Peroxide (#7003, Cell Signaling) was used to visualize gel (see FIG. 25).

Hsp70 [3] = assay: Hsp70 RNA induction, quantitative PCR, Hs294T cells; format: cell-based, human; conditions: 100 nM
Procedure: […] 500 ng of RNA from each sample was used for cDNA synthesis using iScript cDNA Synthesis Kit (Biorad, Cat# 170-8891). 1 uL of cDNA mixture was used with the iQ SYBR Green Supermix (Biorad, Cat# 170-8882) to perform quantitative PCR in an iCycler machine (Biorad) using standard protocols. QPCR for each sample/time point was performed in duplicate. The following primers for inducible human Hsp70 and gapdh were used:
Ct values were obtained from the iCycler program and used in an equation (2^−ΔΔCT) for determining the amount of target relative to gapdh expression. This compares the relative expression of Hsp70 to the corresponding levels of gapdh in each sample. Duplicate wells were averaged and graphed with their corresponding standard deviation.
Activation of HSF-1 by oxidative stress has been reported in the literature to require p38 kinase signaling in some cell lines.

[4] = human, in vivo
MDA-MB-435 cells = assay: Lysis of target cells by mouse splenocytes (MTS assay); format: cell-based, human; conditions: 0.1 or 0.5 μM, about 15 hours, splenocytes 10:1, 24 hours
Procedure: (§1) MDA-MB-435 cells were purchased from American Type culture collection. Human mammary epithelial (HMEC), human renal epithelial (HRE) cells and medium for maintaining the cells were obtained from Cambrex Bioproducts. Mouse splenocytes were isolated form CD1 nude mice (Jackson Lab). […] Mouse splenocytes were isolated from Nude mice and mixed with MDA-MB-435, HMEC and HRE cells at ratio of 10:1. The mixed cells were incubated at 37° C. for 24 hours in the tissue culture medium and MTS assay was performed to measure viability of the cells with an ELISA reader (DYNEX Technologies). Cytotoxicity (C) was calculated based on an equation below: C=[1-([…])]×100%

HMEC and HRE cells = assay: as above; format: cell-based, human; conditions: non-cancerous HMEC and HRE cells; 0.1 or 0.5 μM, about 15 hours; splenocytes 10:1, 24 hours
Procedure: as §1

Hsp70 [5] = assay: Cell surface expression of Hsp70, MCF-7 cells (immunofluorescence); format: cell-based, human; conditions: MCF-7, 0.5 μM, 3 hrs
Procedure: After treatment, cells were rinsed one time in PBS then fixed in 2% Paraformaldehyde at room temperature for 20 minutes. Slides with the fixed cells were rinsed with PBS two times. Primary antibody mouse monoclonal anti-Hsp70 (Stressgen SPA-8 10) was diluted 1:100 in PBS and the slides were incubated 1 hour at 37° C. The slides were rinsed two times with PBS. Secondary antibody anti-mouse AlexaFluor 488 (Molecular Probes A-11001) was diluted 1:500 in PBS and the slides were incubated 30 min at 37° C. The slides were rinsed two times in PBS. DAPI (Molecular Probes D-3571) were diluted 1:10,000 in PBS and the slides were incubated at room temperature in dark for 5 min. The slides were rinsed two times in PBS, then once in deionized water and left to dry in dark until almost completely dry. Coverslips were mounted with Prolong Anti-fade Mounting Media (Molecular Probes P-748 1). The images were captured with a monochrome CCD camera SenSys (see FIGS. 27A-D and 28A-D) or by confocal microscopy (see FIG. 29A-E). In FIGS. 27A-D and 28A-D, the bright pink color on the surface of the MCF-7 cells (FIG. 27A-D) or CEM cells (FIG. 28A-D) indicates Hsp70 on the surface of the cells. In FIG. 29A-E the bright green color on the surface of the cell indicates Hsp70 on the surface of the HT29 cells.

MAPKAPK-2 = MAPKAPK-2 phosphorylation, Western blot, CEM and CV-1 cells; format: cell-based; conditions: CEM and CV-1 tumor cells, 0.1 or 0.5 μM
Procedure: After treatment the cells were lysized and used for Western blot analysis.
Samples were run on a SDS-PAGE gel and proteins were transferred onto a nitrocellulose membrane by a semi-dry transfer. Nitrocellulose was blocked with 5% skim milk in TBS with 0.5% Tween at room temperature for 1 hour and then probed with anti-p-MAPKAPK-2 (Thr334) (#3041, Cell Signaling) antibody. Tubulin was used as a normalization control and was probed with Anti-Tubulin (T9026, Sigma) antibody.

In the case of `CN(NC(=O)CC(=O)NN(C)C(=S)c1ccccc1)C(=S)c1ccccc1` [Compound 1], the “increase in transcription of Hsp70” value [1] is reported as “over 300 fold”, the “induction of heat shock and metallothionein genes” value ([1]; Hs294T melanoma cells) is reported as “robustly induced heat shock and metallothionein genes” and the “gene expression profile (heat shock proteins, metallothioneins, antioxidants)” value ([1]; MDA-MB-435 cells) is reported as “induces an oxidative stress signature profile”. For the same compound, the “induction of Hsp70” value (Hsp70 [2]) was “preferentially induces Hsp70 in MDA-MB-435 tumor cells compared to non-tumor HMEC, and HRE cells”, the “Hsp70 RNA expression induction” value (Hsp70 [3]; 3 hours) was 3.9 fold and the “Hsp70 RNA expression induction” value (Hsp70 [3]; 6 hours) was 8.3 fold. For the same compound, the serious side effects [4] was “No serious side effects specifically attributable to Compound 1 were observed”, the “increase in lysis compared to cells treated with DMSO alone” value (MDA-MB-435 cells) was “about 15%” and the “increase in lysis compared to cells treated with DMSO alone” value (HMEC and HRE cells) was “only slightly increased”. For the same compound, the “Hsp70 on the surface of cells” value (Hsp70 [5]) was “bright pink fluorescent color on the surface of the cells indicating Hsp70”, the “Hsp70 on the surface of cells” value (Hsp70 [5]; then 2 hrs recovery without Compound 1) was “stronger than immediately following treatment with Compound 1” and the “phosphorylation of MAPKAPK-2” value (MAPKAPK-2) was “induces the phosphorylation of MAPKAPK-2”.
